From ChEMBL document CHEMBL3046690, “Identification of an ISR-related metabolite produced by rhizobacterium Klebsiella oxytoca C1036 active against soft-rot disease pathogen in tobacco” (Pest Manag Sci, 2009) come the findings set out here.

Assay [1] concerns Nicotiana tabacum. Nature of the assay: Induction of systemic resistance (ISR) activity in Nicotiana tabacum (tobacco) seedlings against pectobacterium carotovorum subsp. carotovorum SCC1 assessed as decrease in disease symptoms on leaves applied to roots prior to leaf infection with SCC1 measured at 3 days after pathogen challenge. Format: functional, organism-based.
Assay [2] deals with Nicotiana tabacum. The assay can be described thus: Induction of systemic resistance (ISR) activity in Nicotiana tabacum (tobacco) seedlings against pectobacterium carotovorum subsp. carotovorum SCC1 assessed as decrease in disease symptoms on leaves at 12 mM applied to roots prior to leaf infection with SCC1 measured at 3 days after pathogen challenge. Format: functional, organism-based.

Structures are written as SMILES. Calls of active or inactive are those of the source. The calls are words filed in the database; no cut-off is given here.

For `CCCCOC(=O)[C@@H]1CCC(=O)N1`, in the assay on Nicotiana tabacum [1], the result was Active.

Take `CCCCOC(=O)C1CCC(=O)N1` (configuration not stated): in the assay on Nicotiana tabacum [2], the outcome was Active.
